US20160052926A1, “NOVEL PYRIMIDINE AND PYRIDINE COMPOUNDS AND USAGE THEREOF” (HUTCHISON MEDIPHARMA LIMITED, priority 2013, published 2016)

Key:
Recombinant human FGFR1 = Recombinant human FGFR1 (Homo sapiens, UniProt P11362); assay: Transcreener Kinase Assay of FGFR1; assay type: biochemical; conditions: read-out: FGFR1 (FP) IC50
Recombinant human FGFR2 = Recombinant human FGFR2 (Homo sapiens, UniProt P21802); assay: Transcreener Kinase Assay of FGFR2; assay type: biochemical; conditions: read-out: FGFR2 (FP) IC50
FGFR3 kinase = FGFR3 kinase (Homo sapiens, UniProt P22607); assay: Z-Lyte Kinase Assay of FGFR3; assay type: biochemical
How it was run: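 FRET peptide-cleavage format: 1 h kinase reaction at RT (25-30[…]), then 1 h protease development, then stop and dual-emission read (Ex400, Em445/520 nm). Working solutions: kinase 0.7 μg/ml, Tyr 4 peptide 4 μM, ATP 300 uM in 1.33× buffer; eight compound concentrations from 1 μM, 2% DMSO final.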

KG-1 = assay: Cellular Proliferation Assay (Cell Counting Kit-8), KG-1; assay type: cell-based; conditions: Homo sapiens, KG1 cells, 72 hours
How it was run: (§1)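 Proliferation was read as OD at 450 nm after 1 h with CCK-8, following 72 h drug exposure at 37 °C, 5% CO2. Inhibition was calculated against cells in 0.5% DMSO minus medium blank, and the 50% point reported. The compound series (10–0.004 μM, pre-addition, in 5% DMSO) was added one day after plating KG-1, SNU-16 and RT-112 at 30,000, 5,000 and 1,000 cells/well respectively.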

SNU-16 = assay: Cellular Proliferation Assay (Cell Counting Kit-8), SNU-16; assay type: cell-based; conditions: Homo sapiens, SNU-16 cells, 72 hours
How it was run: as §1

RT-112 = assay: Cellular Proliferation Assay (Cell Counting Kit-8), RT-112; assay type: cell-based; conditions: Homo sapiens, RT-112 cells, 72 hours
How it was run: as §1

Recombinant human FGFR1, sequence (P11362 22-822): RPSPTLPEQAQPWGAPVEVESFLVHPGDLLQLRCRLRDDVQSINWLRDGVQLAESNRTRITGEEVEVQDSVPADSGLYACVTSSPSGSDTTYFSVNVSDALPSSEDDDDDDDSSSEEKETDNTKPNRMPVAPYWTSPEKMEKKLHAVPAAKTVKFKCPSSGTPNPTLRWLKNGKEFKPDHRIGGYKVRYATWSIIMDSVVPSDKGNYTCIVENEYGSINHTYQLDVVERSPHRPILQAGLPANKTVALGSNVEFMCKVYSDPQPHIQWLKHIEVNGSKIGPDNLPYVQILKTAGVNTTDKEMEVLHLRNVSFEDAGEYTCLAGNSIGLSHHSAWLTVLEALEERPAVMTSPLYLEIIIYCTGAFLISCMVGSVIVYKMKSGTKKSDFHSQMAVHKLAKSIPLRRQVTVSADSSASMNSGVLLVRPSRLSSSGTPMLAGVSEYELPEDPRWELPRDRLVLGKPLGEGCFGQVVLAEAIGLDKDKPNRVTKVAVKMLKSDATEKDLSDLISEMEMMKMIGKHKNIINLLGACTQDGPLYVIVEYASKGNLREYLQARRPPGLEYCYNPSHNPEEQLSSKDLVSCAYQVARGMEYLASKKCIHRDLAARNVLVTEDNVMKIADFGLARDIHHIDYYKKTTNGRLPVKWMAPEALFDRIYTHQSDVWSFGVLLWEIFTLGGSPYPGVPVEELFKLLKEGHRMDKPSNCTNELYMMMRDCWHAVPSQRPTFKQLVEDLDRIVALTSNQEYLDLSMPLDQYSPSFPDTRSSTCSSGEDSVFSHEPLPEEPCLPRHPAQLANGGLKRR
Recombinant human FGFR2, sequence (P21802 22-821): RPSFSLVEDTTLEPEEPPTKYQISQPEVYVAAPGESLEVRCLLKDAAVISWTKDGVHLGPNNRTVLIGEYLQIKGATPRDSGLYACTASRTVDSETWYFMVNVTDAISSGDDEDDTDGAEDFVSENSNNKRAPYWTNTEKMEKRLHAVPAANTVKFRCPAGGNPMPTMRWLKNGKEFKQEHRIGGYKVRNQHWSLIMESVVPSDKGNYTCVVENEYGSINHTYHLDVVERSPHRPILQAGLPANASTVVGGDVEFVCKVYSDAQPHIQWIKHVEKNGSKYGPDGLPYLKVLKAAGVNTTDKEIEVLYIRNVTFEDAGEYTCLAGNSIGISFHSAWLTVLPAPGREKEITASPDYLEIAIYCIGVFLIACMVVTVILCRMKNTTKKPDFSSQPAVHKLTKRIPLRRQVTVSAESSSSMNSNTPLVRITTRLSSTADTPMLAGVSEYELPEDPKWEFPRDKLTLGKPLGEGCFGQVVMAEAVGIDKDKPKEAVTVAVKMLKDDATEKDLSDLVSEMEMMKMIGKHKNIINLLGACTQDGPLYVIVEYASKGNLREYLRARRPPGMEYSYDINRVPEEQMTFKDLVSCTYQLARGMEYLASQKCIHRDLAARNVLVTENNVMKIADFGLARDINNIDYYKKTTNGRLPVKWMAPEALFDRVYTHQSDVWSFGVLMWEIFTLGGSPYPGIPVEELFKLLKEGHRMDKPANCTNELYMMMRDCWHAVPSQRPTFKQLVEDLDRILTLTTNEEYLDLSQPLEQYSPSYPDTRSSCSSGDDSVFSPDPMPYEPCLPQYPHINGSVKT
FGFR3 kinase, sequence (P22607 23-806): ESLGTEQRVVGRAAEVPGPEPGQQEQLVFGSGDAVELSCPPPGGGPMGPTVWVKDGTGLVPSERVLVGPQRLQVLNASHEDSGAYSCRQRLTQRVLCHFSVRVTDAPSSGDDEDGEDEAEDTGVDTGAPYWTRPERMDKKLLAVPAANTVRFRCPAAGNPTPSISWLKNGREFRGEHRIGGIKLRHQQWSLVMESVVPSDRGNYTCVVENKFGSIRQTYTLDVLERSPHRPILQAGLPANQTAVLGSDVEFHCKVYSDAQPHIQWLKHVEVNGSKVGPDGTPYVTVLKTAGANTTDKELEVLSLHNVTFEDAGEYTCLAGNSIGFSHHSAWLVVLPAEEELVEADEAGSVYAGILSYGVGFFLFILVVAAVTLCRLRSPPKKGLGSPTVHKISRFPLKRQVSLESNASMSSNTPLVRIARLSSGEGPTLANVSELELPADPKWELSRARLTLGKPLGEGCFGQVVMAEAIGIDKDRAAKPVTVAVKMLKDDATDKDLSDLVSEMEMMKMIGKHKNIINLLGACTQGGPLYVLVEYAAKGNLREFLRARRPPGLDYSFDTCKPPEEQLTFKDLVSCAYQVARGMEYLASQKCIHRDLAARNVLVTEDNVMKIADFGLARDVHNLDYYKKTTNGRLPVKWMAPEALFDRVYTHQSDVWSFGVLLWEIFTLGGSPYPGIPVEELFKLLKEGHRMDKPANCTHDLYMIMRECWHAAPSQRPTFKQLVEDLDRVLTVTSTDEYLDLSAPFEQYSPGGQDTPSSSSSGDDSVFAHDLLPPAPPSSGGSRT

Row | SMILES | IC50 (Recombinant human FGFR1) [nM] | IC50 (Recombinant human FGFR2) [nM] | IC50 (FGFR3 kinase) [nM] | IC50 (SNU-16) [nM] | IC50 (KG-1) [nM] | IC50 (RT-112) [nM]
1 | CCN(CC)CCn1cc(Nc2ncc(CCc3cc(C(=O)NC)cc(OC)c3Cl)cn2)cn1 [Compound 86] | 17 | 10 | 10 | 16 | 42 | 12
2 | CNC(=O)c1cc(CCc2cnc(Nc3cnn(C4CC4)c3)nc2)c(F)c(OC)c1 [Compound 107] | 10 | 7 | 14 | 26 | 28 | 90
3 | CONC(=O)c1cc(CCc2cnc(Nc3cn[nH]c3)nc2)cc(OC)c1 [Compound 101] | 8 | 4 | 15 | 42 | 22 | 257
4 | CNC(=O)c1cc(CCc2cnc(Nc3ccc(CN4CCOCC4)cn3)nc2)c(F)c(OC)c1 [Compound 92, 4-fluoro-3-methoxy-N-methyl-5-(2-(2-((5-(morpholinomethyl)pyridin-2-yl)amino)pyrimidin-5-yl)ethyl)benzamide] | 164 | 40 | 198 | 238 | 255 | 831
5 | CONC(=O)c1cc(CCc2cnc(Nc3ccc(F)cc3)nc2)cc(OC)c1 [Compound 104] | 15 | 9 | 44 | 38 | 53 | 142
6 | CNC(=O)c1cc(CCc2cnc(Nc3ccc(N4CCOCC4)cc3)nc2)c(F)c(OC)c1 [Compound 11] | 18 | 9 | 7 | 28 | 40 | 34
7 | CNC(=O)c1cc(CCc2cnc(Nc3cnn(CC(F)(F)F)c3)nc2)c(F)c(OC)c1 [Compound 36] | 21 | 616 | 31 | 29 | 52 | 160
8 | CNC(=O)c1cc(CCc2cnc(Nc3ccc4c(C)n(C)nc4c3)nc2)c(Cl)c(OC)c1 [Compound 84] | 19 | 7 | 16 | 239 | 248 | 122
9 | CNC(=O)c1cc(CCc2cnc(Nc3ccc4nncn4c3)nc2)c(F)c(OC)c1 [Compound 67] | 37 | 27 | 44 | 71 | 89 | 263
10 | CCn1cc(Nc2ncc(CCc3c(F)c(C(=O)NC)cc(OC)c3Cl)cn2)cn1 [Compound 80] | 24 | 16 | 19 | 39 | 33 | 24
11 | CNC(=O)c1cc(CCc2cnc(Nc3ccc4nnc(COC)n4c3)nc2)c(F)c(OC)c1 [Compound 72] | 58 | 24 | 38 | 94 | 195 | 554
12 | CCN1CCN(c2ccc(Nc3ncc(CCc4cc(C(=O)NC)cc(OC)c4F)cn3)cc2)CC1 [Compound 44] | 5 | 4 | 9 | 15 | 9 | 51
13 | CCN1CCN(c2ccc(Nc3ncc(CCc4cc(C(=O)NC)cc(OC)c4F)cn3)cc2)C[C@H]1C [Compound 53] | 5 | 4 | 8 | 19 | 14 | 49
14 | CNC(=O)c1cc(CCc2cnc(Nc3cccc(N4CCOCC4)c3)nc2)c(F)c(OC)c1 [Compound 38] | 8 | 3 | 20 | 30 | 28 | 86
15 | CNC(=O)c1cc(CCc2cnc(Nc3ccc(N4C[C@@H](C)N[C@@H](C)C4)cc3)nc2)c(F)c(OC)c1 [Compound 21, 3-(2-(2-((4-((3R,5S)-3,5-dimethylpiperazin-1-yl)phenyl)amino)pyrimidin-5-yl)ethyl)-4-fluoro-5-methoxy-N-methylbenzamide] | 9 | 6 | 14 | 16 | 40 | 52
16 | CNC(=O)c1cc(CCc2cnc(Nc3cnn(CCN4CCN(C)CC4)c3)nc2)c(F)c(OC)c1 [Compound 45] | 14 | 7 | 10 | 34 | 388 | 94
17 | CCn1cc(Nc2ncc(CCc3cc(C(=O)NC)cc(OC)c3Br)cn2)cn1 [Compound 83] | 15 | 9 | 35 | 55 | 53 | 201
18 | CNC(=O)c1cc(CCc2cnc(Nc3cnn(C[C@H](C)O)c3)nc2)c(F)c(OC)c1 [Compound 32] | 18 | 6 | 5 | 30 | 57 | 104
19 | CNC(=O)c1cc(CCc2cnc(Nc3ccc(N4CCOCC4)cc3)nc2)c(Cl)c(OC)c1 [Compound 85] | 15 | 9 | 17 | 93 | 30 | 26
20 | CONC(=O)c1cc(CCc2cnc(Nc3ccc(N4C[C@@H](C)N[C@@H](C)C4)c(C)c3)nc2)cc(OC)c1 [Compound 49] | 6 | 5 | 8 | 18 | 75 | 62

Second part, led by results:

Row | IC50 (Recombinant human FGFR1) [nM] | IC50 (Recombinant human FGFR2) [nM] | IC50 (FGFR3 kinase) [nM] | IC50 (SNU-16) [nM] | SMILES | IC50 (KG-1) [nM] | IC50 (RT-112) [nM]
21 | 22 | 19 | 22 | 46 | CNC(=O)c1cc(CCc2cnc(Nc3cnn(CCN4CCCC4)c3)nc2)c(F)c(OC)c1 [Compound 135] | 368 | 230
22 | 10 | 6 | 5 | 17 | CCN1CCC[C@@H](n2cc(Nc3ncc(CCc4cc(C(=O)NC)cc(OC)c4F)cn3)cn2)C1 [Compound 174] | 40 | 65
23 | 29 | 12 | 19 | 19 | CNC(=O)c1cc(COc2cnc(Nc3ccc(N4C[C@@H](C)N[C@@H](C)C4)nc3)nc2)c(F)c(OC)c1 [Compound 201] | 1100 | 66
24 | 9 | 6 | 6 | 20 | CNC(=O)c1cc(CCc2cnc(Nc3ccc(N4CCNC(C)(C)C4)cc3)nc2)c(Cl)c(OC)c1 [Compound 200] | 91 | 34
25 | 8 | 5 | 10 | 6 | CNC(=O)c1cc(COc2cnc(Nc3ccc(N4CCNCC4)cc3)nc2)c(F)c(OC)c1 [Compound 188] | 20 | 12
26 | 9 | 7 | 8 | 17 | CNC(=O)c1cc(CCc2cnc(Nc3cnn(C(C)C)c3)nc2)c(F)c(OC)c1 [Compound 112] | 18 | 36
27 | 6 | 5 | 9 | 19 | CNC(=O)c1cc(CCc2cnc(Nc3cnn(C4CCN(C)CC4)c3)nc2)c(Cl)c(OC)c1 [Compound 177] | 25 | 86
28 | 14 | 15 | 18 | 27 | CCN1CCC(n2cc(Nc3ncc(CCc4cc(C(=O)NC)cc(OC)c4Cl)cn3)cn2)CC1 [Compound 178] | 72 | 186
29 | 20 | 13 | 15 | 57 | CNC(=O)c1cc(CCc2cnc(Nc3cnn(C4CN(C)C4)c3)nc2)c(F)c(OC)c1 [Compound 166] | 69 | 592
30 | 8 | 5 | 10 | 32 | CNC(=O)c1cc(CCc2cnc(Nc3ccc4c(C)n(C)nc4c3)nc2)c(F)c(OC)c1 [Compound 130] | 28 | 48
31 | 27 | 9 | 10 | 19 | CNC(=O)c1cc(COc2cnc(Nc3cnn(C)c3)nc2)c(F)c(OC)c1 [Compound 182] | 8 | 33
32 | 19 | 12 | 38 | 29 | CNC(=O)c1cc(CCc2cnc(Nc3cnn(-c4ccc(C)nc4)c3)nc2)c(Cl)c(OC)c1 [Compound 152] | 56 | 88
33 | 9 | 7 | 8 | 32 | CNC(=O)c1cc(CCc2cnc(Nc3cnn(CCCN4CCCC4)c3)nc2)c(F)c(OC)c1 [Compound 138] | 617 | 202
34 | 20 | 10 | 14 | 15 | CNC(=O)c1cc(CCc2cnc(Nc3cnn(-c4cccnc4)c3)nc2)c(F)c(OC)c1 [Compound 128] | 47 | 112
35 | 8 | 7 | 28 | 20 | CNC(=O)c1cc(CCc2cnc(Nc3cnn(C4CCN(C)CC4)c3)nc2)c(F)c(OC)c1 [Compound 173] | 41 | 135
